Article PMC12931196, “Vm–MSI: a Vancomycin–Antimicrobial Peptide Conjugate Combating Resistant Bacteria and Broadening the Antimicrobial Spectrum” (Advanced Science, 2025)
Ends that are not written are not given here.

Legend:
E. coli ATCC25922 [1] = experiment: Antimicrobial resistance development assay; type: cell-based; settings: E. coli ATCC25922 cultured at sub‐MIC
B. cereus CMCC63301 = experiment: MIC, 2 fold broth microdilution; type: cell-based; settings: MH broth, 37 °C, 18 h, OD600
Procedure: (§1) The 2 fold broth microdilution method was performed following previously established protocols.^[ [65], [66] ^] A total of 29 strains of human pathogenic microorganisms (11 Gram‐positive and 18 Gram‐negative) were included in the assay. Standard strains were maintained in our laboratory, and clinical isolates were obtained from the Fourth Affiliated Hospital of Soochow University. […] Gradient dilutions of the drugs (vancomycin, AMPs, and vancomycin‐AMP conjugates) were prepared in 96‐well plates, with 50 µL of each drug solution added per well. For the vancomycin and AMP mixture, 25 µL of vancomycin was combined with 25 µL of AMP at the corresponding monomer gradient concentration, resulting in a total volume of 50 µL. […] Following incubation, bacterial growth was assessed by measuring absorbance at 600 nm. The MIC was defined as the lowest concentration at which no bacterial growth was detected.

P. aeruginosa 52097 = experiment: MIC, 2 fold broth microdilution; type: cell-based; settings: MH broth, 37 °C, 18 h, OD600
Procedure: as §1

P. aeruginosa 60357 = experiment: MIC, 2 fold broth microdilution; type: cell-based; settings: MH broth, 37 °C, 18 h, OD600
Procedure: as §1

P. aeruginosa CMCC10104 = experiment: MIC, 2 fold broth microdilution; type: cell-based; settings: MH broth, 37 °C, 18 h, OD600
Procedure: as §1

S. flexneri ATCC12022 = experiment: MIC, 2 fold broth microdilution; type: cell-based; settings: MH broth, 37 °C, 18 h, OD600
Procedure: as §1

S. flexneri CMCC51571 = experiment: MIC, 2 fold broth microdilution; type: cell-based; settings: MH broth, 37 °C, 18 h, OD600
Procedure: as §1

S. typhimurium CICC21483 = experiment: MIC, 2 fold broth microdilution; type: cell-based; settings: MH broth, 37 °C, 18 h, OD600
Procedure: as §1

[2] = test system: V. parahemolyticus ATCC17802; experiment: MIC, 2 fold broth microdilution; type: cell-based; settings: MH broth, 37 °C, 18 h, OD600
Procedure: as §1

[3] = test system: 29 bacterial strains (11 Gram‐positive, 18 Gram‐negative); experiment: GM of the MICs across the 29 bacterial strains; type: cell-based; settings: MIC values exceeding 100 µg mL^−1 defaulted to 100 µg mL^−1
Procedure: as §1

E. coli ATCC25922 [4] = experiment: Live/dead bacteria staining (PI/SYTO9, CLSM); type: cell-based; settings: 4 µM, 1 h
S. aureus ATCC29213 = settings: ATCC29213, 18 h
VRSA 11 = settings: 11, 18 h
E. faecalis ATCC29212 = settings: ATCC29212, 18 h
E. faecalis 2 = settings: 2, 18 h
C. perfringens ATCC13124 = settings: MH broth, 37 °C, 18 h, OD600
E. coli CMCC44102 = settings: CMCC44102, 18 h
MDR A. baumannii 1 = settings: MH broth, 37 °C, 18 h, OD600
K. pneumoniae 9883 = settings: 9883, 18 h
MDR K. pneumoniae 2 = settings: MH broth, 37 °C, 18 h, OD600
MDR K. pneumoniae 3 = settings: MH broth, 37 °C, 18 h, OD600
MDR K. pneumoniae 4 = settings: MH broth, 37 °C, 18 h, OD600
MDR P. aeruginosa 5 = settings: MDR 5, 18 h
VRSA 52 biofilms = settings: 8 µM, 4 h, SYTO9/PI CLSM
13 bacterial strains = experiment: GM of MIC from tested bacterial strains (Table S2); type: cell-based; settings: 13 strains of Table S2
Procedure: as §1

S. aureus CMCC26003 = settings: CMCC26003, 18 h
MRSA ATCC43300 = settings: ATCC43300, 18 h
S. aureus 15772 = settings: 15772, 18 h
S. aureus 15192 = settings: 15192, 18 h
VRSA 52 = settings: VRSA 52; MH broth, 37 °C, 18 h, OD600
E. coli ATCC25922 [5] = settings: ATCC25922, 18 h
A. baumannii ATCC19606 = settings: ATCC19606, 18 h
P. aeruginosa ATCC27853 = settings: ATCC27853, 18 h
S. typhimurium ATCC14028 = settings: ATCC14028, 18 h

In the case of O=C(O)c1cn(C2CC2)c2cc(N3CCNCC3)c(F)cc2c1=O [ciprofloxacin], the “change of MIC over 20 generations” value (E. coli ATCC25922 [1]) is reported as 64 fold.
For GIGKFLKKAKKFGKAFVKILKK-NH2 [MSI‐78], the MIC (B. cereus CMCC63301) was 7.57(18.75) µM, the MIC (P. aeruginosa 52097) was 3.79(9.38) µM and the MIC (P. aeruginosa 60357) was 3.79(9.38) µM. The MIC (P. aeruginosa CMCC10104) was 7.57(18.75) µM, the MIC (S. flexneri ATCC12022) was 3.79(9.38) µM and the MIC (S. flexneri CMCC51571) was 3.79(9.38) µM. For the same molecule, the MIC (S. typhimurium CICC21483) was 7.57(18.75) µM, the MIC [2] was 7.57(18.75) µM and the “GM: Geometric mean of the MICs across the 29 bacterial strains” value [3] was 7.67(18.99) µM. For the same molecule, the “bacteria killed (mortality)” value (E. coli ATCC25922 [4]) was 58%, the MIC (S. aureus ATCC29213) was 15.14(37.5) µM and the MIC (VRSA 11) was 15.14(37.5) µM. The MIC (E. faecalis ATCC29212) was 30.28(75) µM, the MIC (E. faecalis 2) was 15.14(37.5) µM and the MIC (C. perfringens ATCC13124) was 7.57(18.75) µM. The MIC (E. coli CMCC44102) was 15.14(37.5) µM, the MIC (MDR A. baumannii 1) was 3.79(9.38) µM and the MIC (K. pneumoniae 9883) was 15.14(37.5) µM. For the same molecule, the MIC (MDR K. pneumoniae 2) was 7.57(18.75) µM, the MIC (MDR K. pneumoniae 3) was 3.79(9.38) µM and the MIC (MDR K. pneumoniae 4) was 7.57(18.75) µM. For the same molecule, the MIC (MDR P. aeruginosa 5) was 1.89(4.69) µM and the “killing in the middle layer of the biofilm” value (VRSA 52 biofilms) was 25%.
For ILRWPWWPWRRK-NH2 [Omiganan], the “GM: geometric mean of MIC from tested bacterial strains” value (13 bacterial strains) was 36.00 µg/mL, the MIC (S. aureus CMCC26003) was 2.34(1.32) µg mL^−1 and the MIC (S. aureus ATCC29213) was 18.75(10.54) µg mL^−1. For the same molecule, the MIC (MRSA ATCC43300) was 37.5(21.08) µg mL^−1, the MIC (S. aureus 15772) was 18.75(10.54) µg mL^−1 and the MIC (S. aureus 15192) was 18.75(10.54) µg mL^−1. For the same molecule, the MIC (VRSA 52) was 9.38(5.27) µg mL^−1, the MIC (E. faecalis ATCC29212) was 75(42.15) µg mL^−1 and the MIC (E. coli ATCC25922 [5]) was 18.75(10.54) µg mL^−1. The MIC (A. baumannii ATCC19606) was 75(42.15) µg mL^−1, the MIC (K. pneumoniae 9883) was >100(56.21) µg mL^−1 and the MIC (P. aeruginosa ATCC27853) was 18.75(10.54) µg mL^−1. The MIC (S. typhimurium ATCC14028) was 37.5(21.08) µg mL^−1.
